# According to the supplement of paper PMC4862054:
# Tests used:
# BT-549 [1] = assay: normalised viability (% of control), CellTiter-Blue; higher = more viable cells (about 100 = DMSO control); settings: incubation time: 72 h
# Outline: (§1)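 The reported figure is normalised viability at a single listed concentration of the series. Breast cancer cell lines (20 µl suspension) went onto 384-well plates holding compound in 5 µl medium for 72 h. CellTiter-Blue (2.5 µl, 2 h, 37 °C) was read by fluorescence at 560/590 nm, and each plate was scaled to vehicle at 100 and a positive kill control at 0.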
# CAL-148 [2] = assay: as above; settings: incubation time: 72 h
# Outline: as §1
# MDA-MB-453 [3] = assay: as above; settings: incubation time: 72 h
# Outline: as §1
# MFM-223 = assay: as above; settings: incubation time: 72 h
# Outline: as §1
# Hs578T [4] = assay: as above; settings: incubation time: 72 h
# Outline: as §1
# HCC1937 [5] = assay: as above; settings: incubation time: 72 h
# Outline: as §1
# MDA-MB-468 [6] = assay: as above; settings: incubation time: 72 h
# Outline: as §1
# HCC1599 = assay: as above; settings: incubation time: 72 h
# Outline: as §1
# CAL-120 [7] = assay: as above; settings: incubation time: 72 h
# Outline: as §1
# MDA-MB-436 [8] = assay: as above; settings: incubation time: 72 h
# Outline: as §1
# BT-474 [9] = assay: as above; settings: incubation time: 72 h
# Outline: as §1
# SK-BR-3 [10] = assay: as above; settings: incubation time: 72 h
# Outline: as §1
# CAL-51 [11] = assay: as above; settings: incubation time: 72 h
# Outline: as §1
# HCC1143 = assay: as above; settings: incubation time: 72 h
# Outline: as §1
# BT-549 [12] = assay: drug sensitivity score (DSS), CellTiter-Glo (DSS (AUC-based score)); higher = stronger drug effect (viability inhibition or cytotoxicity); extreme values may be limits of the assay; settings: incubation time: 72 h
# Outline: (§2)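 The drug sensitivity score reflects the area under a fitted dose-response curve. To obtain it, breast cancer cells in 20 µl suspension were seeded into 384-well plates containing compound at 5 concentrations, 10-fold apart over a compound-specific 10,000-fold range, and incubated 72 h. CellTox Green fluorescence (485/520 nm) was read first and CellTiter-Glo luminescence second, after 10 min at room temperature. Each plate was normalised to 0.1 % DMSO and a positive kill control.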
# CAL-148 [13] = assay: as above; settings: incubation time: 72 h
# Outline: as §2
# MDA-MB-468 [14] = assay: as above; settings: incubation time: 72 h
# Outline: as §2
# CAL-85-1 [15] = assay: as above; settings: incubation time: 72 h
# Outline: as §2
# BT-474 [16] = assay: as above; settings: incubation time: 72 h
# Outline: as §2
# SK-BR-3 [17] = assay: as above; settings: incubation time: 72 h
# Outline: as §2
# MCF-10A [18] = assay: as above; settings: incubation time: 72 h
# Outline: as §2
# HDQ-P1 = assay: as above; settings: incubation time: 72 h
# Outline: as §2
# BT-549 [19] = settings: 72 h
# Outline: (§3)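 Two sequential readouts followed a 72 h incubation of breast cancer cell lines with compound at 5 concentrations in 10-fold steps over a compound-specific 10,000-fold range: CellTox Green fluorescence (485/520 nm) for cell death, then CellTiter-Glo luminescence, after 10 min at room temperature, for viability. Each plate was normalised to 0.1 % DMSO and a positive kill control. Dose-response curves were fitted for EC50, censored at the top concentration.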
# MDA-MB-453 [20] = settings: 72 h
# Outline: as §3
# Hs578T [21] = settings: 72 h
# Outline: as §3
# HCC1937 [22] = settings: 72 h
# Outline: as §3
# MDA-MB-468 [23] = settings: 72 h
# Outline: as §3
# CAL-85-1 [24] = settings: 72 h
# Outline: as §3
# CAL-120 [25] = settings: 72 h
# Outline: as §3
# MDA-MB-231 = settings: 72 h
# Outline: as §3
# MDA-MB-436 [26] = settings: 72 h
# Outline: as §3
# BT-474 [27] = settings: 72 h
# Outline: as §3
# SK-BR-3 [28] = settings: 72 h
# Outline: as §3
# MCF-10A [29] = settings: 72 h
# Outline: as §3
# CAL-51 [30] = settings: 72 h
# Outline: as §3
smiles,measurement,setting,value
CC[C@]1(O)C[C@H]2CN(CCc3c([nH]c4ccccc34)[C@@](C(=O)OC)(c3cc4c(cc3OC)N(C=O)[C@H]3[C@@](O)(C(=O)OC)[C@H](OC(C)=O)[C@]5(CC)C=CCN6CC[C@]43[C@@H]65)C2)C1 [Vincristine],normalised viability,BT-549 [1]; 100 nM,22.3%
same,normalised viability,BT-549 [1]; 1000 nM,16.2%
same,normalised viability,CAL-148 [2]; 3 nM,88.5%
same,normalised viability,CAL-148 [2]; 30 nM,23.2%
same,normalised viability,MDA-MB-453 [3]; 3 nM,92.1%
same,normalised viability,MDA-MB-453 [3]; 30 nM,22.6%
same,normalised viability,MFM-223; 100 nM,40.2%
same,normalised viability,MFM-223; 1000 nM,28.1%
same,normalised viability,Hs578T [4]; 100 nM,17.7%
same,normalised viability,Hs578T [4]; 1000 nM,16.8%
same,normalised viability,HCC1937 [5]; 100 nM,13.8%
same,normalised viability,HCC1937 [5]; 1000 nM,15.1%
same,normalised viability,MDA-MB-468 [6]; 100 nM,33.4%
same,normalised viability,MDA-MB-468 [6]; 1000 nM,33.2%
same,normalised viability,HCC1599; 100 nM,59.3%
same,normalised viability,HCC1599; 1000 nM,48%
same,normalised viability,CAL-120 [7]; 100 nM,19.3%
same,normalised viability,CAL-120 [7]; 1000 nM,19.2%
same,normalised viability,MDA-MB-436 [8]; 100 nM,35.4%
same,normalised viability,MDA-MB-436 [8]; 1000 nM,39.5%
same,normalised viability,BT-474 [9]; 100 nM,52%
same,normalised viability,BT-474 [9]; 1000 nM,50.6%
same,normalised viability,SK-BR-3 [10]; 100 nM,17.1%
same,normalised viability,SK-BR-3 [10]; 1000 nM,17.2%
same,normalised viability,CAL-51 [11]; 3 nM,99%
same,normalised viability,CAL-51 [11]; 30 nM,72.1%
same,normalised viability,HCC1143; 100 nM,38.8%
same,normalised viability,HCC1143; 1000 nM,35.8%
same,drug sensitivity score,BT-549 [12],21.1
same,drug sensitivity score,CAL-148 [13],12.7
same,drug sensitivity score,MDA-MB-468 [14],23
same,drug sensitivity score,CAL-85-1 [15],19.2
same,drug sensitivity score,BT-474 [16],11.5
same,drug sensitivity score,SK-BR-3 [17],27.7
same,drug sensitivity score,MCF-10A [18],10.1
same,drug sensitivity score,HDQ-P1,7.83
same,"EC50, CellTiter-Glo",BT-549 [19],1.71 nM
same,"EC50, CellTiter-Glo",MDA-MB-453 [20],6.53 nM
same,"EC50, CellTiter-Glo",Hs578T [21],16.2 nM
same,"EC50, CellTiter-Glo",HCC1937 [22],2.89 nM
same,"EC50, CellTiter-Glo",MDA-MB-468 [23],2.18 nM
same,"EC50, CellTiter-Glo",CAL-85-1 [24],2.7 nM
same,"EC50, CellTiter-Glo",CAL-120 [25],3.26 nM
same,"EC50, CellTiter-Glo",MDA-MB-231,11.6 nM
same,"EC50, CellTiter-Glo",MDA-MB-436 [26],11.6 nM
same,"EC50, CellTiter-Glo",BT-474 [27],7.55 nM
same,"EC50, CellTiter-Glo",SK-BR-3 [28],2.33 nM
same,"EC50, CellTiter-Glo",MCF-10A [29],2.93 nM
same,"EC50, CellTiter-Glo",CAL-51 [30],57.3 nM
Cn1c(=O)n(-c2ccc(C(C)(C)C#N)cc2)c2c3cc(-c4cnc5ccccc5c4)ccc3ncc21 [Dactolisib],drug sensitivity score,BT-549 [12],18.6
same,drug sensitivity score,CAL-148 [13],14.6
same,drug sensitivity score,MDA-MB-468 [14],13.2
same,drug sensitivity score,CAL-85-1 [15],15.3
same,drug sensitivity score,BT-474 [16],9.24
same,drug sensitivity score,SK-BR-3 [17],16.2
same,drug sensitivity score,MCF-10A [18],9.78
same,drug sensitivity score,HDQ-P1,10.7
same,"EC50, CellTiter-Glo",BT-549 [19],9.82 nM
same,"EC50, CellTiter-Glo",MDA-MB-453 [20],12 nM
same,"EC50, CellTiter-Glo",Hs578T [21],13.6 nM
same,"EC50, CellTiter-Glo",HCC1937 [22],13 nM
same,"EC50, CellTiter-Glo",MDA-MB-468 [23],23.1 nM
same,"EC50, CellTiter-Glo",CAL-85-1 [24],8.05 nM
same,"EC50, CellTiter-Glo",CAL-120 [25],9.42 nM
same,"EC50, CellTiter-Glo",MDA-MB-231,11.8 nM
same,"EC50, CellTiter-Glo",MDA-MB-436 [26],3.68 nM
same,"EC50, CellTiter-Glo",BT-474 [27],9.85 nM
same,"EC50, CellTiter-Glo",SK-BR-3 [28],14 nM
same,"EC50, CellTiter-Glo",MCF-10A [29],28.5 nM
same,"EC50, CellTiter-Glo",CAL-51 [30],14.3 nM
